Key:
Format in all cases: cell-based, human
[1] = tested on: CD4-positive T cells (Th cells); assay: Induction of antigen-specific Th cells from PBMC; IFN-γ intracellular staining (ICS); set-up: key to induction of antigen-specific T cells: The symbol “+” in Table 7 indicates that the induction of antigen-specific T cells was observed; the symbol “−” indicates that the induction of antigen-specific T cells was not observed; conditions: for best peptide (%) / induction efficiency (%): CD4; for best peptide (%): percentage of the 6 kinds of PBMCs in which the peptide was evaluated as best peptide; for induction efficiency (%): proportion of the 6 kinds of donor PBMCs induced to antigen-specific T cells; for induction of antigen-specific T cells: induced T cell CD4, polypeptide 5 μM, IFN-γ-producing cells, day 21; for best peptide: highest ratio of antigen-specific IFN-γ-producing cells
Experimental: (§1) From the blood that was donated from 6 healthy human volunteers, human peripheral blood mononuclear cells (PBMC) were separated using a Ficoll-Paque (manufactured by Amersham Bioscience Inc.). The separated PBMC was cultured at 37° C. for 1 hour in a cell culture flask (manufactured by ED Biosciences) in a CO2 incubator using a serum-free AIM-V medium, thereby to remove non-adherent cells. Then, adherent cells remaining on the flask were started to culture in the AIM-V medium in the presence of a recombinant GM-CSF (10 ng/ml, manufactured by Wako Company) and a recombinant IL-4 (10 ng/ml, manufactured by Wako Company). After 3 days from the start of culture, the medium was replaced by an AIM-V medium supplemented with GM-CSF and IL-4, and dendritic cells (DC) were recovered using trypsin after 7 days from the start of culture. These DCs were used as antigen-presenting cells (APC) in the induction of antigen-specific T cells or in the analysis of antigen-specific cytokine (IFN-γ) production from T cells.
(§2) The foregoing PBMCs separated from healthy human volunteers were seeded to a density of 2×10^6 cells/well in a 24-well plate (manufactured by BD Biosciences). Then, culturing the cells were started in an AIM-V medium (1 ml/well) supplemented with each polypeptide (5 μM) derived from the WT1 protein described above inducing antigen-specific T cells, and serum at 37° C. in a CO2 incubator.
(§3) After 7 days from the start of culture, the above DC (autologous DC) was added to PBMC having the same derivation. Further, the medium was replaced with a serum-free AIM-V medium (manufactured by Life Technologies Inc.) supplemented with OK-432 (0.1 KE/ml, trade name: picibanil, manufactured by Chugai Pharmaceutical Co., Ltd.), and culture was performed for 2 hours. It should be noted that picibanil (OK-432) is a formulation obtained by treating an attenuated natural mutant strain (Su strain) of Group A Streptococcus with penicillin, and it is known that various cytokines (immune factor) are produced with use of picibanil to elicit an immune enhancing effect.
(§4) Then, after 2 hours of culture, the cells were treated for 50 minutes with addition of mitomycin C (MMC, manufactured by Kyowa Hakko Kirin Co., Ltd.). Furthermore, co-culture was performed in an AIM-V medium containing autologous DC and 5% human AB serum in which T cells are inactivated (Hokkaido Red Cross Center) in the presence of each polypeptide (5 μM) for inducing the antigen-specific T cells, thereby to re-stimulate the T cells. Two days later, a recombinant IL-2 (manufactured by Shionogi Pharmaceutical Institute Co., Ltd.) was added thereto to a final concentration of 10 U/ml. After 14 days from the start of co-culture, the autologous DC was pulsed with each polypeptide (5 μM) for inducing the antigen-specific T cells for 2 hours, and then treated with MMC. Such MMC treated cells as APC were used for re-stimulating T cells. In addition, on or after 14 days from the start of co-culture, culture was performed at the concentration of 20 U/ml of recombinant IL-2. After that, T cells on day 21 of the co-culture were collected by centrifugation or the like and subjected to an analysis of antigen-specific reactivity shown below.
(§5) T cells that were induced as described above (T cells on day 21 of the co-culture) and autologous DCs were seeded in the same well of a 96-well plate (manufactured by BD Biosciences) to a density of 5×10^4 cells/well and 5×10^3 cells/well, respectively. Then, the cells were cultured in the presence of each polypeptide (HE 4, KE 1, KE 5, H/K-HELP 1, H/K-HELP 2 or H/K-HELP 3) (5 μM) for the analysis of antigen-specific reactivity. In addition, a group without addition of such polypeptide was prepared as a control group. […]

[2] = tested on: CD8-positive T cells (CTL); assay: Induction of antigen-specific CTL from PBMC; IFN-γ intracellular staining (ICS); set-up: key to induction of antigen-specific T cells: The symbol “+” in Table 7 indicates that the induction of antigen-specific T cells was observed; the symbol “−” indicates that the induction of antigen-specific T cells was not observed; conditions: for best peptide (%) / induction efficiency (%): CD8; for best peptide (%): percentage of the 6 kinds of PBMCs in which the peptide was evaluated as best peptide; for induction efficiency (%): proportion of the 6 kinds of donor PBMCs induced to antigen-specific T cells; for induction of antigen-specific T cells: induced T cell CD8, polypeptide 5 μM, IFN-γ-producing cells, day 21; for best peptide: highest ratio of antigen-specific IFN-γ-producing cells
Experimental: as §1, §2, §3, §4, §5

[3] = tested on: CD4-positive T cells and CD8-positive T cells; assay: Induction of antigen-specific T cells from PBMC, CD4 and CD8 taken together; conditions: for best peptide (%): CD4 + CD8, percentage of PBMCs in which the peptide was evaluated as best peptide
Experimental: as §1, §2, §3
Then, after 2 hours of culture, the cells were treated for 50 minutes with addition of mitomycin C (MMC, manufactured by Kyowa Hakko Kirin Co., Ltd.). Furthermore, co-culture was performed in an AIM-V medium containing autologous DC and 5% human AB serum in which T cells are inactivated (Hokkaido Red Cross Center) in the presence of each polypeptide (5 μM) for inducing the antigen-specific T cells, thereby to re-stimulate the T cells. Two days later, a recombinant IL-2 (manufactured by Shionogi Pharmaceutical Institute Co., Ltd.) was added thereto to a final concentration of 10 U/ml. […]

Sequence	best peptide (%) [1]	induction efficiency (%) [1]	induction of antigen-specific T cells ([1]; donor 1 PBMC)	induction of antigen-specific T cells ([1]; donor 2 PBMC)	induction of antigen-specific T cells ([1]; donor 3 PBMC)	induction of antigen-specific T cells ([1]; donor 4 PBMC)	induction of antigen-specific T cells ([1]; donor 5 PBMC)	induction of antigen-specific T cells ([1]; donor 6 PBMC)	best peptide (%) [2]	induction efficiency (%) [2]	induction of antigen-specific T cells ([2]; donor 1 PBMC)	induction of antigen-specific T cells ([2]; donor 2 PBMC)	induction of antigen-specific T cells ([2]; donor 3 PBMC)	induction of antigen-specific T cells ([2]; donor 4 PBMC)	induction of antigen-specific T cells ([2]; donor 5 PBMC)	induction of antigen-specific T cells ([2]; donor 6 PBMC)	best peptide (%) [3]	also measured
KRYFKLSHLQMHSRKHGGGGGRMFPNAPYL (Fusion polypeptide in which HE4, 5-Glycine linker and KE1 are fused in this order from the N-terminal) [H/K-HELP1, fused polypeptide: HE4, five-glycine linker, KE1 from the N-terminus]	0.00%	33.33%	+	−	−	−	+	−	0.00%	16.67%	−	−	−	−	+	−	0.00%	activity of inducing antigen-specific T cells in CD4-positive and CD8-positive T cells, comparison in words ([3]; compared with Comparative Example 1 (mix of the epitopes), 6 donors): not different from those of Comparative Example 1
KRYFKLSHLQMHSRKHGGGGGRMFPNAPYLGGGGGCYTWNQMNL (Fusion polypeptide in which HE4, 5-Glycine linker, KE1, 5-Glycine linker and KE5 are fused in this order from the N-terminal) [H/K-HELP2, fused polypeptide: HE 4, KE 1 and KE 5 from the N-terminus with five-glycine linkers]	33.33%	50.00%	−	+	+	−	+	−	33.33%	50.00%	+	−	+	−	−	+	33.33%	best peptide ([1]; donor 2, CD4): H/K-HELP2; best peptide ([1]; donor 3, CD4): H/K-HELP2; best peptide ([2]; donor 1, CD8): H/K-HELP2; best peptide ([2]; donor 6, CD8): H/K-HELP2
RMFPNAPYLGGGGGKRYFKLSHLQMHSRKHGGGGGCYTWNQMNL (Fusion polypeptide in which KE1, 5-Glycine linker, HE4, 5-Glycine linker and KE5 are fused in this order from the N-terminal) [H/K-HELP3, fused polypeptide: KE 1, HE 4 and KE 5 from the N-terminus with five-glycine linkers]	50.00%	66.67%	+	−	+	+	+	−	50.00%	50.00%	−	−	+	+	+	−	50.00%	stimulation of CD4-positive T cells of different derivation to induce IFN-γ-producing Th1 cells, comparison in words ([1]; compared with Example 1, 6 donors): more numerous CD4-positive T cells of different derivation are stimulated, as compared to Example 1; best peptide ([1]; donor 1, CD4): H/K-HELP3; best peptide ([1]; donor 4, CD4): H/K-HELP3; best peptide ([1]; donor 5, CD4): H/K-HELP3; best peptide ([2]; donor 3, CD8): H/K-HELP3; best peptide ([2]; donor 4, CD8): H/K-HELP3; best peptide ([2]; donor 5, CD8): H/K-HELP3

Source: patent US10253075B2, “WT1 antigenic polypeptide, and anti-tumor agent containing said polypeptide” (Tella, Inc., priority 2014, dated 2019)
